Experimental data taken from ChEMBL document CHEMBL5308541, “MAIP: An Open-Source Tool to Enrich High-Throughput Screening Output and Identify Novel, Druglike Molecules with Antimalarial Activity” (ACS Med Chem Lett, 2023).

Columns and labels:
[1] = test system: Plasmodium falciparum; assay: Hit confirmation in dose-response curve in Dd2 pLDH assay, at 72h; type: functional, organism-based, Erythrocyte; parameters: timepoint 72 hour; settings: Plasmodium falciparum, Dd2, Erythrocyte, 72 h
[2] = test system: Plasmodium falciparum; assay: Hit confirmation in dose-response curve in NF54 nanoGlo assay, at 12h; type: functional, organism-based, Erythrocyte; parameters: timepoint 12 hour; settings: Plasmodium falciparum, NF54, Erythrocyte, 12 h
[3] = test system: Plasmodium falciparum; assay: Hit confirmation in dose-response curve in NF54 pLDH assay, at 72h; type: functional, organism-based, Erythrocyte; parameters: timepoint 72 hour; settings: Plasmodium falciparum, NF54, Erythrocyte, 72 h
[4] = Hit confirmation in dose-response curve in HepG2 cytotoxicity assay, at 72h; type: toxicity, cell-based, Homo sapiens; parameters: timepoint 72 hour; settings: human, HepG2 cells
[5] = test system: Plasmodium falciparum; assay: Hit confirmation in dose-response curve in NF54 nanoGlo assay, at 72h; type: functional, organism-based, Erythrocyte; parameters: timepoint 72 hour; settings: Plasmodium falciparum, NF54, Erythrocyte, 72 h

## CCN1CCC(N2CCC(C(=O)NCCc3ccc(OC(F)(F)F)cc3)CC2)CC1
[1]
  IC50: 3.31 µM
[2]
  IC50: 6.76 µM
[3]
  IC50: 3.8 µM
[4]
  IC50 at 72 h: > 10 µM
[5]
  IC50: 3.31 µM

## CN(C)Cc1cccc(CCNCc2csc(-c3ccc(C(F)(F)F)cc3)n2)c1
[1]
  IC50: 2.69 µM
[2]
  IC50: 4.79 µM
[3]
  IC50: 3.47 µM
[4]
  IC50 at 72 h: 7.76 µM
[5]
  IC50: 2.63 µM

## O=C1CN(C(=O)c2ccnc3ccccc23)CCN1Cc1ccccc1F
[1]
  IC50: > 10 µM
[2]
  IC50: > 10 µM
[3]
  IC50: 14.5 µM
[4]
  IC50 at 72 h: > 10 µM
[5]
  IC50: 6.31 µM

## COc1ccc2c(N3CC[C@H](CN4CCCC4)C3)ccnc2c1
[1]
  IC50: 0.417 µM
[2]
  IC50: 0.794 µM
[3]
  IC50: 0.589 µM
[4]
  IC50 at 72 h: > 10 µM
[5]
  IC50: 0.525 µM

## OC[C@H](CNCc1cc2ccc(F)cc2[nH]1)c1ccccc1Cl
[1]
  IC50: 3.31 µM
[2]
  IC50: 3.98 µM
[3]
  IC50: 3.72 µM
[4]
  IC50 at 72 h: > 10 µM
[5]
  IC50: 2.34 µM

## NC(=O)[C@]1(O)CCN(c2ccnc3ccc(Oc4ccccc4)cc23)C1
[1]
  IC50: 3.24 µM
[2]
  IC50: 7.76 µM
[3]
  IC50: 3.8 µM
[4]
  IC50 at 72 h: > 10 µM
[5]
  IC50: 3.31 µM

## O=C(NCc1cccc(-c2cccnc2)c1)N[C@H]1CCN(C2CCCCC2)C1
[1]
  IC50: 4.47 µM
[2]
  IC50: > 10 µM
[3]
  IC50: 1.29 µM
[4]
  IC50 at 72 h: > 10 µM
[5]
  IC50: 3.98 µM

## O=C(CCc1nnc(-c2ccc(-c3ccccc3)cc2)o1)NC[C@@H]1CCCN2CCCC[C@H]12
[1]
  IC50: 6.46 µM
[2]
  IC50: 8.51 µM
[3]
  IC50: 5.13 µM
[4]
  IC50 at 72 h: > 10 µM
[5]
  IC50: 4.07 µM

## Cc1cc(C)c(CN2CCN(C)CC2)cc1CNCCCn1ccnc1C
[1]
  IC50: 3.39 µM
[2]
  IC50: 7.41 µM
[3]
  IC50: 3.89 µM
[4]
  IC50 at 72 h: > 10 µM
[5]
  IC50: 3.89 µM

## CCCN1CCC(Nc2cc(C)nc3ccccc23)CC1
[1]
  IC50: 1.78 µM
[2]
  IC50: 5.37 µM
[3]
  IC50: 2.29 µM
[4]
  IC50 at 72 h: > 10 µM
[5]
  IC50: 2.19 µM

## COc1ccc2c(C)cc(NCCCN3CCC[C@H](C(N)=O)C3)nc2c1
[1]
  IC50: 3.02 µM
[2]
  IC50: 6.76 µM
[3]
  IC50: 2.69 µM
[4]
  IC50 at 72 h: > 10 µM
[5]
  IC50: 2.19 µM

## O[C@H]1CCN(Cc2cccc(NCc3cn4ccnc4s3)c2)C1
[1]
  IC50: 3.8 µM
[2]
  IC50: 10 µM
[3]
  IC50: 4.17 µM
[4]
  IC50 at 72 h: > 10 µM
[5]
  IC50: 3.89 µM

## Cc1ccc2[nH]cc(-c3cc(N4CCOCC4)nc(N)n3)c2c1
[1]
  IC50: 7.08 µM
[2]
  IC50: 9.77 µM
[3]
  IC50: 7.59 µM
[4]
  IC50 at 72 h: > 10 µM
[5]
  IC50: 5.62 µM

## CN1CCC(N(Cc2ccccc2)C(=O)c2cc3cnccc3[nH]2)CC1
[1]
  IC50: 2.82 µM
[2]
  IC50: 5.37 µM
[3]
  IC50: 2.95 µM
[4]
  IC50 at 72 h: > 10 µM
[5]
  IC50: 2.51 µM

## CN1C(C)(C)CC(NC(=O)c2ccc(-c3cc(-c4cccc(C(F)(F)F)c4)n[nH]3)cc2)CC1(C)C
[1]
  IC50: 7.94 µM
[2]
  IC50: 8.51 µM
[3]
  IC50: 9.33 µM
[4]
  IC50 at 72 h: > 10 µM
[5]
  IC50: 3.63 µM

## O=C(NCCNc1ccnc2ccncc12)c1ccc(C(F)(F)F)cc1
[1]
  IC50: 5.37 µM
[2]
  IC50: > 10 µM
[3]
  IC50: 5.75 µM
[4]
  IC50 at 72 h: > 10 µM
[5]
  IC50: 3.24 µM

## CCN(Cc1cnn(-c2cccc(Cl)c2)c1)CC1CCN(C2CCN(C)CC2)CC1
[1]
  IC50: 1.23 µM
[2]
  IC50: 2.69 µM
[3]
  IC50: 1.35 µM
[4]
  IC50 at 72 h: > 10 µM
[5]
  IC50: 1.55 µM

## Cc1cnccc1NCCNCc1cnc(N2CCCCC2)nc1
[1]
  IC50: 2.14 µM
[2]
  IC50: > 10 µM
[3]
  IC50: 3.39 µM
[4]
  IC50 at 72 h: > 10 µM
[5]
  IC50: 2.51 µM

## FC(F)(F)c1ccc(-c2c(-c3ccccc3)ncn2Cc2ncn[nH]2)cc1
[1]
  IC50: > 10 µM
[2]
  IC50: 2.75 µM
[3]
  IC50: > 10 µM
[4]
  IC50 at 72 h: > 10 µM
[5]
  IC50: 6.92 µM

## O[C@@H](CNCc1cc2cc(Cl)c(Cl)cc2[nH]1)c1ccc(F)cc1
[1]
  IC50: 3.39 µM
[2]
  IC50: 5.01 µM
[3]
  IC50: 8.51 µM
[4]
  IC50 at 72 h: > 10 µM
[5]
  IC50: 2.34 µM

## Cc1cc(N2CCC(NC3CCCC3Cc3ccc(F)cc3)CC2)nc(N)n1 (stereo not given)
[1]
  IC50: 1.1 µM
[2]
  IC50: 3.02 µM
[3]
  IC50: 1.1 µM
[4]
  IC50 at 72 h: 4.68 µM
[5]
  IC50: 0.912 µM

## CN(C[C@H](O)COc1cccc(CNCCCOc2cccnc2)c1)C1CCCCC1
[1]
  IC50: 6.92 µM
[2]
  IC50: > 10 µM
[3]
  IC50: 6.17 µM
[4]
  IC50 at 72 h: > 10 µM
[5]
  IC50: 5.13 µM

## COc1ccc(CCNCc2ccc3[nH]cnc3c2)c(Cl)c1
[1]
  IC50: 3.47 µM
[2]
  IC50: > 10 µM
[3]
  IC50: 4.47 µM
[4]
  IC50 at 72 h: > 10 µM
[5]
  IC50: 3.02 µM

## CN(C)CCN1CCC(NC2CCC(O)(c3cccc(Cl)c3)CC2)CC1 (stereo not given)
[1]
  IC50: 3.72 µM
[2]
  IC50: > 10 µM
[3]
  IC50: 4.47 µM
[4]
  IC50 at 72 h: > 10 µM
[5]
  IC50: 5.01 µM

## COCCNc1nc(N[C@@H](C)c2ccccc2)c2ccccc2n1
[1]
  IC50: 2.75 µM
[2]
  IC50: 8.71 µM
[3]
  IC50: 5.37 µM
[4]
  IC50 at 72 h: > 10 µM
[5]
  IC50: 3.02 µM
